# Molecular target: USP19 (Homo sapiens (Human), UniProt O94966)
# Assay: USP19 activity assay (fluorescence polarisation, Ubiquitin-Lys-TAMRA substrate)
# Type: biochemical
# Details: full-length USP19 2.5 nM, 30 min pre-incubation, Ub substrate 500 nM; average of at least two duplicate experiments
# Procedure: Unless otherwise stated, all other reagents were purchased from Sigma. Enzymatic reactions were conducted in black flat bottom polystyrene 384-well plates (Nunc) and 30 μL total volume. […] Inhibitors were stored as 10 mM DMSO stocks in an inert environment (low humidity, dark, low oxygen, room temperature) using the Storage Pod System and serial dilutions were prepared in buffer just prior to the assay (from 200 μM to 2 pM, 8-18 data point curve). Following incubation at RT for 30 min, the enzymatic reactions were initiated by dispensing the Ub substrate (500 nM, 10 μL). FP was measured every 15 min over a period of 90 min (within the linear range of the assay) using a Synergy 4 plate reader (BioTek) exciting at 530 nm and measuring the amount of parallel and perpendicular light at 575 nm. The FP signal was subsequently normalised to the no compound control.
# Chain of USP19 (O94966 whole entry): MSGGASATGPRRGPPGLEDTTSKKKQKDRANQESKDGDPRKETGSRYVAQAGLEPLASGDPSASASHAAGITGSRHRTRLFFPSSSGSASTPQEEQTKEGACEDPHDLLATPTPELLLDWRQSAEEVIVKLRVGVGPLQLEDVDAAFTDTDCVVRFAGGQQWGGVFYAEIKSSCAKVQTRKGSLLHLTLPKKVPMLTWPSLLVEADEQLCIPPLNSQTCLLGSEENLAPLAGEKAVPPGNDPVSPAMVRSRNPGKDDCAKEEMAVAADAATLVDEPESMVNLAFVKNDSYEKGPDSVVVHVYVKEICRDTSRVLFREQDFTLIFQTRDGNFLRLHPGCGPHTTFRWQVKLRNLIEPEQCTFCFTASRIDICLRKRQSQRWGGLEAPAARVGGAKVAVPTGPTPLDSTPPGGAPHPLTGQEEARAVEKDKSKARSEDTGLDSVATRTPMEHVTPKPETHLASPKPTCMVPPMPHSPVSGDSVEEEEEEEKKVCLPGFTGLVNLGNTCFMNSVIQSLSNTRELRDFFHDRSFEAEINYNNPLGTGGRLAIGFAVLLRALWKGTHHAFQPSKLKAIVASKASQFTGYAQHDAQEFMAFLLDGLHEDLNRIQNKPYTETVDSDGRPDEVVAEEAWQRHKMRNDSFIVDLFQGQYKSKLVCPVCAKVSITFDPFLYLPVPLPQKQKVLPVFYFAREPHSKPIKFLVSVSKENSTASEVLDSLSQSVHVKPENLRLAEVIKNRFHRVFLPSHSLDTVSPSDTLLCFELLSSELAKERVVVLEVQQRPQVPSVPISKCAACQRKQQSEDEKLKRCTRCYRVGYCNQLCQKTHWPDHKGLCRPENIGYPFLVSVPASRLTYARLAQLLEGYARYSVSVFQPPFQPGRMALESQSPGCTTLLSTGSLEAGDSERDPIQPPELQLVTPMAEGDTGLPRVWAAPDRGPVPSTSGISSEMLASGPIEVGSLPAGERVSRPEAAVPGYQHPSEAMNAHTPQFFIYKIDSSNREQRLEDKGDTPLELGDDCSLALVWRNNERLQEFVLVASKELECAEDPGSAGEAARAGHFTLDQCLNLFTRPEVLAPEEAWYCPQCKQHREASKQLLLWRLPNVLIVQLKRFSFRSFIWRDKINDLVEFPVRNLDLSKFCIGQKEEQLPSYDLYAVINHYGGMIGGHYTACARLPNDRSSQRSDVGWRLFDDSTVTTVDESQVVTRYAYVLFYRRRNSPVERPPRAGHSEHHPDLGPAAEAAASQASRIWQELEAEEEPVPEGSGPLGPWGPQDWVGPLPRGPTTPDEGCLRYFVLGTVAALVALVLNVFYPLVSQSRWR
row,SMILES,IC50 [µM]
1,"C[C@H](CC(=O)N1CCC(O)(Cn2cnc(-c3cccc4cnn(C)c34)cc2=O)CC1)c1ccccc1 [Example 16, (R)-3-((4-Hydroxy-1-(3-phenylbutanoyl)piperidin-4-yl)methyl)-6-(1-methyl-1H-indazol-7-yl)pyrimidin-4(3H)-one]",5 to 50
2,"C[C@H](CC(=O)N1CCC(O)(Cn2cnc(-c3cccc(C4OCCO4)c3)cc2=O)CC1)c1ccccc1 [Example 21, (R)-6-(3-(1,3-Dioxolan-2-yl)phenyl)-3-((4-hydroxy-1-(3-phenylbutanoyl)piperidin-4-yl)methyl)pyrimidin-4(3H)-one]",5 to 50
3,"C[C@H](CC(=O)N1CCC(O)(Cn2cnc(-c3ccsc3)cc2=O)CC1)c1ccccc1 [Example 22, (R)-3-((4-Hydroxy-1-(3-phenylbutanoyl)piperidin-4-yl)methyl)-6-(thiophen-3-yl)pyrimidin-4(3H)-one]",5 to 50
4,"CC(C)N(C)C(=O)c1cn(CC2(O)CCN(C(=O)C3(C)CCCC3)CC2)c(=O)cc1-c1ccccc1F [Example 23, 4-(2-Fluorophenyl)-1-((4-hydroxy-1-(1-methylcyclopentane-1-carbonyl)piperidin-4-yl)methyl)-N-isopropyl-N-methyl-6-oxo-1,6-dihydropyridine-3-carboxamide]",5 to 50
5,"CCC1(C(=O)N2CCC(O)(Cn3cnc(-c4ccccc4F)cc3=O)CC2)CCCCC1 [Example 24, 3-((1-(1-Ethylcyclohexane-1-carbonyl)-4-hydroxypiperidin-4-yl)methyl)-6-(2-fluorophenyl)pyrimidin-4(3H)-one]",5 to 50
6,"CC(C)C(CC1CCCCC1)C(=O)N1CCC(O)(Cn2cnc(-c3ccccc3F)cc2=O)C(C)(C)C1 (stereo not shown) [Example 25, 3-((1-(2-(Cyclohexylmethyl)-3-methylbutanoyl)-4-hydroxy-3,3-dimethylpiperidin-4-yl)methyl)-6-(2-fluorophenyl)pyrimidin-4(3H)-one]",0.5 to 5
7,"C[C@H](CC(=O)N1CCC(O)(Cn2cnc(C3=CCCCC3)cc2=O)CC1)c1ccccc1 [Example 28, (R)-6-(Cyclohex-1-en-1-yl)-3-((4-hydroxy-1-(3-phenylbutanoyl)piperidin-4-yl)methyl)pyrimidin-4(3H)-one]",50 to 250
8,"C=C(C)c1cc(=O)n(CC2(O)CCN(C(=O)C[C@@H](C)c3ccccc3)CC2)cn1 [Example 29, (R)-3-((4-Hydroxy-1-(3-phenylbutanoyl)piperidin-4-yl)methyl)-6-(prop-1-en-2-yl)pyrimidin-4(3H)-one]",50 to 250
9,"C[C@H](CC1CCCCC1)C(=O)N1C[C@H]2CC[C@@H](C1)C2(O)Cn1cnc(-c2ccccc2F)cc1=O (stereo partly drawn) [Example 31, 3-(((1R,5S)-3-((R)-3-Cyclohexyl-2-methylpropanoyl)-8-hydroxy-3-azabicyclo[3.2.1]octan-8-yl)methyl)-6-(2-fluorophenyl)pyrimidin-4(3H)-one]",0.5 to 5
10,"Cc1nc(-c2ccccc2)cc(=O)n1CC1(O)CCN(C(=O)CCc2ccccc2)CC1 [Example 34, 3-((4-Hydroxy-1-(3-phenylpropanoyl)piperidin-4-yl)methyl)-2-methyl-6-phenylpyrimidin-4(3H)-one]",50 to 250
11,"CC(C)CNc1cc(=O)n(CC2(O)CCN(C(=O)C[C@@H](C)c3ccccc3)CC2)cn1 [Example 35, (R)-3-((4-Hydroxy-1-(3-phenylbutanoyl)piperidin-4-yl)methyl)-6-(isobutylamino)pyrimidin-4(3H)-one]",50 to 250
12,"C[C@H](CC1CCCCC1)C(=O)N1CCC(O)(Cn2cc(C(=O)N3CCCCC3)c(-c3ccccc3)cc2=O)CC1 [Example 36, (R)-1-((1-(3-Cyclohexyl-2-methylpropanoyl)-4-hydroxypiperidin-4-yl)methyl)-4-phenyl-5-(piperidine-1-carbonyl)pyridin-2(1H)-one]",0.5 to 5
13,"C[C@H](CC1CCCCC1)C(=O)N1CCC(O)(Cn2cnc(-c3ccccc3F)cc2=O)CC1 [Example 39, (R)-3-((1-(3-Cyclohexyl-2-methylpropanoyl)-4-hydroxypiperidin-4-yl)methyl)-6-(2-fluorophenyl)pyrimidin-4(3H)-one]",5 to 50
14,"CCC(CC1CCCCC1)C(=O)N1CCC(O)(Cn2cnc(-c3ccccc3F)cc2=O)CC1 (stereo not shown) [Example 40, 3-((1-(2-(Cyclohexylmethyl)butanoyl)-4-hydroxypiperidin-4-yl)methyl)-6-(2-fluorophenyl)pyrimidin-4(3H)-one]",5 to 50
15,"CC1(C(=O)N2CCC(O)(Cn3cnc(-c4ccccc4F)cc3=O)CC2)CCCCC1 [Example 42, 6-(2-Fluorophenyl)-3-((4-hydroxy-1-(1-methylcyclohexanecarbonyl)piperidin-4-yl)methyl)pyrimidin-4(3H)-one]",5 to 50
16,"O=C(C[C@H](c1ccccc1)C(F)(F)F)N1CCC(O)(Cn2cnc(-c3ccccc3F)cc2=O)CC1 [Example 48, (R)-6-(2-Fluorophenyl)-3-((4-hydroxy-1-(4,4,4-trifluoro-3-phenylbutanoyl)piperidin-4-yl)methyl)pyrimidin-4(3H)-one]",50 to 250

# Second part, the compound after the results:
row,IC50 [µM],SMILES
1,5 to 50,"C=C(C)c1cc(=O)n(CC2(O)CCN(C(=O)C[C@@H](C)c3ccccc3)CC2)cc1-c1ccccc1 [Example 12, (R)-1-((4-Hydroxy-1-(3-phenylbutanoyl)piperidin-4-yl)methyl)-5-phenyl-4-(prop-1-en-2-yl)pyridine-2(1H)-one]"
2,50 to 250,"CCOC(=O)c1cn(CC2(O)CCN(C(=O)C[C@@H](C)c3ccccc3)CC2)c(=O)cc1-c1ccccc1 [Example 13, (R)-Ethyl 1-((4-hydroxy-1-(3-phenylbutanoyl)piperidin-4-yl)methyl)-6-oxo-4-phenyl-1,6-dihydropyridine-3-carboxylate]"
3,5 to 50,"COc1ccccc1-c1cc(=O)n(CC2(O)CCN(C(=O)C[C@@H](C)c3ccccc3)CC2)cn1 [Example 17, (R)-3-((4-Hydroxy-1-(3-phenylbutanoyl)piperidin-4-yl)methyl)-6-(2-methoxyphenyl)pyrimidin-4(3H)-one]"
4,5 to 50,"Cc1nc(-c2ccccc2)cc(=O)n1CC1(O)CCN(C(=O)C[C@@H](C)c2ccccc2)CC1 [Example 18, (R)-3-((4-Hydroxy-1-(3-phenylbutanoyl)piperidin-4-yl)methyl)-2-methyl-6-phenylpyrimidin-4(3H)-one]"
5,5 to 50,"C[C@H](CC(=O)N1CCC(O)(Cn2nc(-c3ccccc3)c(-c3ccccc3)cc2=O)CC1)c1ccccc1 [Example 19, (R)-2-((4-Hydroxy-1-(3-phenylbutanoyl)piperidin-4-yl)methyl)-5,6-diphenylpyridazin-3(2H)-one]"
6,5 to 50,"C[C@H](CC(=O)N1CCC(O)(Cn2cnc(-c3cccc4ccccc34)cc2=O)CC1)c1ccccc1 [Example 20, (R)-3-((4-Hydroxy-1-(3-phenylbutanoyl)piperidin-4-yl)methyl)-6-(naphthalen-1-yl)pyrimidin-4(3H)-one]"
7,50 to 250,"C[C@H](CC(=O)N1CCC(O)(Cn2cnc(-c3ccco3)cc2=O)CC1)c1ccccc1 [Example 26, (R)-6-(Furan-2-yl)-3-((4-hydroxy-1-(3-phenylbutanoyl)piperidin-4-yl)methyl)pyrimidin-4(3H)-one]"
8,50 to 250,"C[C@H](CC(=O)N1CCC(O)(Cn2ccc(-c3ccccc3)cc2=O)CC1)c1ccccc1 [Example 27, (R)-1-((4-Hydroxy-1-(3-phenylbutanoyl)piperidin-4-yl)methyl)-4-phenylpyridin-2(1H)-one]"
9,50 to 250,"C[C@H](CC(=O)N1CCC(O)(Cn2cnc(-c3ccccc3OC(F)(F)F)cc2=O)CC1)c1ccccc1 [Example 30, (R)-3-((4-Hydroxy-1-(3-phenylbutanoyl)piperidin-4-yl)methyl)-6-(2-(trifluoromethoxy)phenyl)pyrimidin-4(3H)-one]"
10,5 to 50,"C[C@H](CC(=O)N1CCC(O)(Cn2cnc(-c3ccccc3F)cc2=O)CC1)c1ccccc1 [Example 32, (R)-6-(2-Fluorophenyl)-3-((4-hydroxy-1-(3-phenylbutanoyl)piperidin-4-yl)methyl)pyrimidin-4(3H)-one]"
11,5 to 50,"C[C@H](CC(=O)N1CCC(O)(Cc2cnc(-c3ccccc3)[nH]c2=O)CC1)c1ccccc1 [Example 33, (R)-5-((4-Hydroxy-1-(3-phenylbutanoyl)piperidin-4-yl)methyl)-2-phenylpyrimidin-4(3H)-one]"
12,50 to 250,"C[C@H](CC(=O)N1CCC(O)(Cn2ncc(-c3ccccc3)cc2=O)CC1)c1ccccc1 [Example 37, (R)-2-((4-Hydroxy-1-(3-phenylbutanoyl)piperidin-4-yl)methyl)-5-phenylpyridazin-3(2H)-one]"
13,50 to 250,"CC(C)N(C)C(=O)c1cn(CC2(O)CCN(C(=O)C[C@@H](C)c3ccccc3)CC2)c(=O)cc1-c1ccccc1C#N [Example 38, (R)-4-(2-Cyanophenyl)-1-((4-hydroxy-1-(3-phenylbutanoyl)piperidin-4-yl)methyl)-N-isopropyl-N-methyl-6-oxo-1,6-dihydropyridine-3-carboxamide]"
14,50 to 250,"C[C@H](CC(=O)N1CCC(O)(Cn2cc(C=O)c(-c3ccccc3)cc2=O)CC1)c1ccccc1 [Example 45, (R)-1-((4-Hydroxy-1-(3-phenylbutanoyl)piperidin-4-yl)methyl)-6-oxo-4-phenyl-1,6-dihydropyridine-3-carbaldehyde]"
15,50 to 250,"C[C@H](CC(=O)N1CCC(O)(Cn2cc(CN(C)C)c(-c3ccccc3)cc2=O)CC1)c1ccccc1 [Example 46, (R)-5-((Dimethylamino)methyl)-1-((4-hydroxy-1-(3-phenylbutanoyl)piperidin-4-yl)methyl)-4-phenylpyridin-2(1H)-one]"

# Source: patent US11053213B2, “Pharmaceutical compounds” (ALMAC DISCOVERY LIMITED, priority 2016, dated 2021)
